Assays:
Test in all cases: relative viability (nuclei count vs DMSO), 5 days (fraction); higher = more cells survive
NCI-H650 = system: NCI-H650
Summary of the method: (§1)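 Relative viability equals treated-well nuclei counts divided by vehicle-well nuclei counts. Counts came from 4× images of lung cancer cell lines grown in 1536-well plates for 5 days after pin-tool dosing on the day after seeding. Dosing used one drug alone or a fixed anchor-drug dose plus five library-drug doses (not always all listed) in √10 steps, and values are medians of duplicate plates.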

NCI-H2347 = system: NCI-H2347
Summary of the method: as §1

NCI-H460 = system: NCI-H460
Summary of the method: as §1

HOP-62 = system: HOP-62
Summary of the method: as §1

NCI-H647 = system: NCI-H647
Summary of the method: as §1

NCI-H2405 = system: NCI-H2405
Summary of the method: as §1

SW 1573 = system: SW 1573
Summary of the method: as §1

NCI-H520 = system: NCI-H520
Summary of the method: as §1

SW 900 = system: SW 900
Summary of the method: as §1

NCI-H2023 = system: NCI-H2023
Summary of the method: as §1

NCI-H2009 = system: NCI-H2009
Summary of the method: as §1

NCI-H727 = system: NCI-H727
Summary of the method: as §1

LOU-NH91 = system: LOU-NH91
Summary of the method: as §1

ChaGo-K-1 = system: ChaGo-K-1
Summary of the method: as §1

NCI-H1793 = system: NCI-H1793
Summary of the method: as §1

HCC-44 = system: HCC-44
Summary of the method: as §1

NCI-H2170 = system: NCI-H2170
Summary of the method: as §1

EPLC-272H = system: EPLC-272H
Summary of the method: as §1

NCI-H1437 = system: NCI-H1437
Summary of the method: as §1

EMC-BAC-2 = system: EMC-BAC-2
Summary of the method: as §1

NCI-H441 = system: NCI-H441
Summary of the method: as §1

NCI-H2126 = system: NCI-H2126
Summary of the method: as §1

COCC1(CO)C(=O)C2CCN1CC2 (centres undefined) [PRIMA-1MET] + COc1cccc2cc(-c3nc([C@H]4CC[C@H](C(=O)O)CC4)n4ncnc(N)c34)[nH]c12 [OSI-027] (partner 0.5 µM)
relative viability (NCI-H650; first compound 0.2 µM): 0.705
relative viability (NCI-H650; first compound 2 µM): 0.5
relative viability (NCI-H650; first compound 6.325 µM): 0.603
relative viability (NCI-H650; first compound 20 µM): 0.381
relative viability (NCI-H2347; first compound 0.2 µM): 0.428
relative viability (NCI-H2347; first compound 0.6325 µM): 0.496
relative viability (NCI-H2347; first compound 2 µM): 0.247
relative viability (NCI-H2347; first compound 6.325 µM): 0.336
relative viability (NCI-H2347; first compound 20 µM): 0.311
relative viability (NCI-H460; first compound 0.2 µM): 0.653
relative viability (NCI-H460; first compound 0.6325 µM): 0.624
relative viability (NCI-H460; first compound 2 µM): 0.487
relative viability (NCI-H460; first compound 6.325 µM): 0.323
relative viability (NCI-H460; first compound 20 µM): 0.0164
relative viability (HOP-62; first compound 0.2 µM): 0.965
relative viability (HOP-62; first compound 0.6325 µM): 0.808
relative viability (HOP-62; first compound 2 µM): 0.757
relative viability (HOP-62; first compound 6.325 µM): 0.88
relative viability (HOP-62; first compound 20 µM): 0.754
relative viability (NCI-H647; first compound 0.2 µM): 0.684
relative viability (NCI-H647; first compound 0.6325 µM): 0.837
relative viability (NCI-H647; first compound 2 µM): 0.508
relative viability (NCI-H647; first compound 6.325 µM): 0.56
relative viability (NCI-H647; first compound 20 µM): 0.105
relative viability (NCI-H2405; first compound 0.2 µM): 0.501
relative viability (NCI-H2405; first compound 0.6325 µM): 0.653
relative viability (NCI-H2405; first compound 6.325 µM): 0.591
relative viability (NCI-H2405; first compound 20 µM): 0.499
relative viability (SW 1573; first compound 0.2 µM): 0.622
relative viability (SW 1573; first compound 0.6325 µM): 0.482
relative viability (SW 1573; first compound 2 µM): 0.597
relative viability (SW 1573; first compound 6.325 µM): 0.0316
relative viability (SW 1573; first compound 20 µM): 0.032
relative viability (NCI-H520; first compound 0.2 µM): 0.31
relative viability (NCI-H520; first compound 0.6325 µM): 0.213
relative viability (NCI-H520; first compound 2 µM): 0.169
relative viability (NCI-H520; first compound 6.325 µM): 0.197
relative viability (NCI-H520; first compound 20 µM): 0.143
relative viability (SW 900; first compound 0.2 µM): 0.54
relative viability (SW 900; first compound 0.6325 µM): 0.451
relative viability (SW 900; first compound 2 µM): 0.471
relative viability (SW 900; first compound 6.325 µM): 0.362
relative viability (SW 900; first compound 20 µM): 0.0628
relative viability (NCI-H2023; first compound 0.2 µM): 0.453
relative viability (NCI-H2023; first compound 0.6325 µM): 0.366
relative viability (NCI-H2023; first compound 2 µM): 0.363
relative viability (NCI-H2023; first compound 6.325 µM): 0.4
relative viability (NCI-H2023; first compound 20 µM): 0.241
relative viability (NCI-H2009; first compound 0.2 µM): 0.699
relative viability (NCI-H2009; first compound 0.6325 µM): 0.578
relative viability (NCI-H2009; first compound 2 µM): 0.643
relative viability (NCI-H2009; first compound 6.325 µM): 0.67
relative viability (NCI-H2009; first compound 20 µM): 0.0063
relative viability (NCI-H727; first compound 0.2 µM): 0.357
relative viability (NCI-H727; first compound 0.6325 µM): 0.371
relative viability (NCI-H727; first compound 2 µM): 0.498
relative viability (NCI-H727; first compound 6.325 µM): 0.536
relative viability (NCI-H727; first compound 20 µM): 0.338
relative viability (LOU-NH91; first compound 0.2 µM): 0.806
relative viability (LOU-NH91; first compound 0.6325 µM): 0.719
relative viability (LOU-NH91; first compound 2 µM): 0.589
relative viability (LOU-NH91; first compound 6.325 µM): 0.662
relative viability (LOU-NH91; first compound 20 µM): 0.468
relative viability (ChaGo-K-1; first compound 0.2 µM): 0.581
relative viability (ChaGo-K-1; first compound 0.6325 µM): 0.518
relative viability (ChaGo-K-1; first compound 2 µM): 0.522
relative viability (ChaGo-K-1; first compound 6.325 µM): 0.53
relative viability (ChaGo-K-1; first compound 20 µM): 0.448
relative viability (NCI-H1793; first compound 0.2 µM): 0.255
relative viability (NCI-H1793; first compound 0.6325 µM): 0.221
relative viability (NCI-H1793; first compound 6.325 µM): 0.298
relative viability (NCI-H1793; first compound 20 µM): 0.276
relative viability (HCC-44; first compound 0.2 µM): 0.584
relative viability (HCC-44; first compound 0.6325 µM): 0.472
relative viability (HCC-44; first compound 2 µM): 0.383
relative viability (HCC-44; first compound 6.325 µM): 0.397
relative viability (HCC-44; first compound 20 µM): 0.485
relative viability (NCI-H2170; first compound 0.2 µM): 0.494
relative viability (NCI-H2170; first compound 0.6325 µM): 0.634
relative viability (NCI-H2170; first compound 2 µM): 0.722
relative viability (NCI-H2170; first compound 6.325 µM): 0.718
relative viability (NCI-H2170; first compound 20 µM): 0.713
relative viability (EPLC-272H; first compound 2 µM): 0.235
relative viability (EPLC-272H; first compound 6.325 µM): 0.27
relative viability (EPLC-272H; first compound 20 µM): 0.0689
relative viability (NCI-H1437; first compound 0.2 µM): 1.03
relative viability (NCI-H1437; first compound 0.6325 µM): 0.945
relative viability (NCI-H1437; first compound 2 µM): 0.794
relative viability (NCI-H1437; first compound 6.325 µM): 0.893
relative viability (NCI-H1437; first compound 20 µM): 0.887
relative viability (EMC-BAC-2; first compound 0.2 µM): 0.509
relative viability (EMC-BAC-2; first compound 0.6325 µM): 0.385
relative viability (EMC-BAC-2; first compound 6.325 µM): 0.366
relative viability (EMC-BAC-2; first compound 20 µM): 0.322
relative viability (NCI-H441; first compound 0.2 µM): 0.593
relative viability (NCI-H441; first compound 0.6325 µM): 0.629
relative viability (NCI-H441; first compound 2 µM): 0.663
relative viability (NCI-H441; first compound 6.325 µM): 0.611
relative viability (NCI-H441; first compound 20 µM): 0.313
relative viability (NCI-H2126; first compound 0.2 µM): 0.799
relative viability (NCI-H2126; first compound 0.6325 µM): 0.603
relative viability (NCI-H2126; first compound 2 µM): 0.56
relative viability (NCI-H2126; first compound 6.325 µM): 0.728
relative viability (NCI-H2126; first compound 20 µM): 0.675

— the supplement of paper PMC10307832
